From US9873693B2 (Sunesis Pharmaceuticals, Inc., priority 2006, dated 2018)
Read-outs that look alike come from different tables or passages of the source.

Experiments:
phosphorylated PDK1 = phosphorylated PDK1 (Homo sapiens (Human), UniProt O15530); assay: PDK1 kinase assay (coupled PDK1/AKT/FAM-crosstide, IMAP); format: biochemical; details: 0.5 nM phosphorylated PDK1, 24 μM ATP; read-out: Inhibition of phospo-PDK1 in vitro IC50
phospho-akt (Thr308) = phospho-akt (Thr308) MSD ELISA in PC-3 cells; format: cell-based; details: Homo sapiens, PC-3, 2 h
Protocol: PC-3 cells were harvested by trypsin and counted. Cells were plated in coated 96-well flat bottom plates (plate 15,000 cells/well in 100 ul growth media (10% FBS, 1× pen-strep) an place in an incubator overnight.
Subject inhibitors were stocked at 50 mM, then diluted to 30 mM (4.8 μl cpd plus […] DMSO) in 100% DMSO. Three-fold dilutions were performed from 30 mM stock. (4 μl into 8 ul 100% DMSO). Aliquots of 1.0 μl of inhibitor solution were transferred into SF Medium (using deep well block).
Control wells were prepared as follows. For DMSO high controls, 1.0 μl of 100% DMSO was added into 1.0 ml SF.
MSD plates were blocked for 1 hour by adding 150 μl of Blocking Solution (3% BSA) to each well. The MSD plates were washed 4× with TBST, and 50 μl lysates were transferred to MSD plate and place on plate shaker shake at 4 degrees O/N, light shaking (speed 3.5). The plate was washed 4× with TBST.
25 μl of Ab detection solution was added to each well. The plate was sealed and incubated 1 hr RT, light shaking (speed 3.5). The plate was washed 4 times with TBST. 150 μl of Read Buffer was added (5 mls 4×MSD Read Buffer+15 mls water). Finally the plate was read immediately on the MSD plate reader.

[1] = PC-3 cells, 2 hours, no serum, read-out: Inhibition of P308 Akt in cells using MSD EC50
[2] = read-out: Inhibition of P308 Akt in cells using MSD EC50
[3] = PC-3 cells, 2 hours, no serum, read-out: Reduction of Cellular Levels of Akt p308 By MSD ELISA (EC50 μM)

Sequence of phosphorylated PDK1 (O15530 51-360): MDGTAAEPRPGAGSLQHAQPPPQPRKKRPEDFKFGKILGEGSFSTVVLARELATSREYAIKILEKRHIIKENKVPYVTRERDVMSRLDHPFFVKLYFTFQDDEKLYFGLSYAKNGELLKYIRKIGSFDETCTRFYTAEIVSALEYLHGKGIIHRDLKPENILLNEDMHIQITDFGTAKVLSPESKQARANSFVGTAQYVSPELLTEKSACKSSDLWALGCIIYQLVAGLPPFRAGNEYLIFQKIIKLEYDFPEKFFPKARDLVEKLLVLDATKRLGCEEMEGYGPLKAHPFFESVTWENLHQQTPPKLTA

| SMILES | IC50 (phosphorylated PDK1) [nM] | EC50 (phospho-akt (Thr308); [1]) [µM] | EC50 (phospho-akt (Thr308); [2]) [µM] | EC50 (phospho-akt (Thr308); [3]) [µM] | EC50 (phospho-akt (Thr308); read-out: Reduction of Cellular Levels of Akt p308 By MSD ELISA (EC50 μM)) [µM] |
| --- | --- | --- | --- | --- | --- |
| O=C1Nc2cc(/C=C/CNC(=O)c3cccn(Cc4ccc(F)c(F)c4)c3=O)ccc2/C1=C/c1ncc[nH]1 [Cpd 199] | < 500 | < 1 |  |  |  |
| O=C(NCc1cc(OCCN2CCOCC2)cc(-c2c[nH]c3ncccc23)c1)c1cccn(Cc2ccc(F)c(F)c2)c1=O [Cpd 56] | < 500 | 1 to 5 |  |  |  |
| O=C(NCc1cc(-c2c[nH]c3ncccc23)cc(CO)n1)c1cccn(Cc2ccc(F)c(F)c2)c1=O [Cpd 196] | < 500 | 1 to 5 |  |  |  |
| O=C(N[C@@H](/C=C/c1ccc2[nH]c(=O)[nH]c2c1)c1ccccc1)c1cccn(Cc2cc(F)c(F)c(F)c2)c1=O [Cpd 183] | < 500 |  | 1 to 5 |  |  |
| O=C1Nc2cc(/C=C/CNC(=O)c3cccn(Cc4ccc(F)c(F)c4)c3=O)ccc2/C1=C\c1cccnc1 [Cpd 200] | < 500 | 1 to 5 |  |  |  |
| O=C1Nc2cc(/C=C/CNC(=O)c3cc(Cl)cn(Cc4cc(F)c(F)c(F)c4)c3=O)ccc2/C1=C/c1ncc[nH]1 [Cpd 197] | < 500 | < 1 |  |  |  |
| O=C(NCc1cccc(-c2c[nH]c3ncc(Cl)cc23)c1)c1cccn(Cc2ccc(F)c(F)c2)c1=O [Cpd 22] | < 500 | 1 to 5 |  | 1 to 5 |  |
| O=C(N[C@@H](COc1ccc2[nH]c(=O)[nH]c2c1)c1ccccc1)c1cccn(Cc2cc(F)c(F)c(F)c2)c1=O [Cpd 174] | < 500 |  | 1 to 5 |  |  |
| O=C(C[C@@H](NC(=O)c1cccn(Cc2ccc(F)c(F)c2)c1=O)c1ccc(-c2c[nH]c3ncccc23)s1)NC1CC1 [Cpd 33] | < 500 | 1 to 5 |  | 1 to 5 |  |
| O=C(Cc1cccc(C2CNc3ncccc32)c1)Nc1cccn(Cc2ccc(F)c(F)c2)c1=O (stereo not shown) [Cpd 44] | < 500 | 1 to 5 |  |  |  |
| O=C(N[C@@H](COc1ccc2[nH]c(=O)[nH]c2c1)c1cccs1)c1cccn(Cc2ccc(F)c(F)c2)c1=O [Cpd 192] | < 500 | < 1 |  |  |  |
| O=C(NCc1cccc(-c2c[nH]c3nccc(Cl)c23)c1)c1cccn(Cc2ccc(F)c(F)c2)c1=O [Cpd 50] | < 500 | 1 to 5 |  |  |  |
| CC(C)Oc1cc(CNC(=O)c2cccn(Cc3ccc(F)c(F)c3)c2=O)cc(-c2c[nH]c3ncccc23)c1 [Cpd 25] | < 500 |  | < 1 |  | < 1 |
| O=C(N[C@H]1CC[C@H](c2c[nH]c3ncccc32)CC1)c1cccn(Cc2ccc(F)c(F)c2)c1=O [Cpd 337] | > 10000 |  |  |  |  |
| N#Cc1cc(-c2c[nH]c3ncccc23)cc(CNC(=O)c2cccn(Cc3ccc(F)c(F)c3)c2=O)n1 [Cpd 191] | < 500 |  | < 1 |  |  |
| O=C1Nc2cc(/C=C/CNC(=O)c3cccn(Cc4cc(F)c(F)c(F)c4)c3=O)ccc2/C1=C\c1ccc(O)cc1 [Cpd 201] | < 500 | < 1 |  |  |  |
| O=C(NCCCCc1c[nH]c2ncccc12)c1cccn(Cc2ccc(Cl)c(Cl)c2)c1=O [Cpd 269] | < 500 |  |  |  |  |
| O=C(NCc1cccc(-c2c[nH]c3ncccc23)c1)c1cccn(Cc2ccc(F)c(F)c2)c1=O [Cpd 126] | < 500 | 1 to 5 |  | < 1 |  |
| O=C(NCc1cc(O)cc(-c2c[nH]c3ncccc23)c1)c1cccn(Cc2ccc(F)c(F)c2)c1=O [Cpd 49] | < 500 | 1 to 5 |  |  |  |
| CN1CCC(=C2C(=O)Nc3cc(/C=C/CNC(=O)c4cccn(Cc5cc(F)c(F)c(F)c5)c4=O)ccc32)CC1 [Cpd 211] | < 500 |  |  |  |  |
| O=C1Nc2cc(/C=C/CNC(=O)c3cccn(Cc4cc(F)c(F)c(F)c4)c3=O)ccc2/C1=C/c1nccs1 [Cpd 203] | < 500 | 1 to 5 |  |  |  |
| CC(=O)Oc1ccc(C(COc2ccc3[nH]c(=O)[nH]c3c2)NC(=O)c2cccn(Cc3cc(F)c(F)c(F)c3)c2=O)cc1 (stereo not shown) [Cpd 189] | < 500 | < 1 |  |  |  |
| O=C(N[C@@H](COc1ccc2[nH]c(=O)[nH]c2c1)c1ccsc1)c1cccn(Cc2ccc(F)c(F)c2)c1=O [Cpd 190] | < 500 | < 1 |  |  |  |
| NS(=O)(=O)c1ccc(-c2cccc(CNC(=O)c3cccn(Cc4ccc(F)c(F)c4)c3=O)c2)cc1 [Cpd 228] | > 10000 |  |  |  |  |
| CN(C)CCOc1cc(CNC(=O)c2cccn(Cc3ccc(F)c(F)c3)c2=O)cc(-c2c[nH]c3ncccc23)c1 [Cpd 60] | < 500 | 1 to 5 |  |  |  |
| CCNC(=O)c1cnc2[nH]cc(-c3cccc(CNC(=O)c4cccn(Cc5ccc(F)c(F)c5)c4=O)c3)c2c1 [Cpd 28] | < 500 | < 1 |  | < 1 |  |
| O=C(NCCCc1ccc2[nH]c(=O)[nH]c2c1)c1cccn(Cc2ccc(F)c(F)c2)c1=O [Cpd 161] | < 500 |  |  |  |  |
| O=C(O)COc1cc(CNC(=O)c2cccn(Cc3ccc(F)c(F)c3)c2=O)cc(-c2c[nH]c3ncccc23)c1 [Cpd 61] | < 500 |  |  |  |  |
